Experimental data published in US11260049B2, “TRPV4 antagonists” (GlaxoSmithKline Intellectual Property (No. 2) Limited, priority 2016, dated 2022).
pIC50: −log10 of the molar value. Like-named read-outs stand apart in the source and are kept apart here.

Molecular target: human TRPV4 (Homo sapiens (Human), UniProt Q9HBA0)
Test: FLIPR assay for hTRPV4 expressed in BHK cells
Assay type: cell-based
Description: FLIPR Assay for hTRPV4 Expressed in BHK Cells:
TRPV4 channel activation results in an influx of divalent and monovalent cations including calcium. The resulting changes in intracellular calcium were monitored using a calcium specific fluorescent dye Fluo-4 (MDS Analytical Technologies). BHK/AC9 cells transduced with BacMam virus expressing the human TRPV4 gene at a MOI of 78 were plated in a 384 well poly-D lysine coated plate (15,000 cells/well in 50 μL culture medium containing DMEM/F12 with 15 mM HEPES, 10% FBS, 1% Penicillin-Streptomycin and 1% L-glutamine). Cells were incubated for 24 hours at 37° C. and 5% CO2. Culture medium was then aspirated using a Tecan plate-washer and replaced with 20 μL/well of dye loading buffer: HBSS, 500 μM Brilliant Black (MDS Analytical Technologies), and 2 μM Fluo-4 AM. Dye loaded plates were then incubated in the dark at room temperature for 1˜1.5 hours.

[1] = at least one set of experimental runs, TRPV4 FLIPR assay, read-out: average IC50
[2] = inhibition of Agonist Compound (EC80)-induced calcium signal, BHK/AC9 cells expressing human TRPV4, read-out: IC50

Chain of human TRPV4 (Q9HBA0 whole entry): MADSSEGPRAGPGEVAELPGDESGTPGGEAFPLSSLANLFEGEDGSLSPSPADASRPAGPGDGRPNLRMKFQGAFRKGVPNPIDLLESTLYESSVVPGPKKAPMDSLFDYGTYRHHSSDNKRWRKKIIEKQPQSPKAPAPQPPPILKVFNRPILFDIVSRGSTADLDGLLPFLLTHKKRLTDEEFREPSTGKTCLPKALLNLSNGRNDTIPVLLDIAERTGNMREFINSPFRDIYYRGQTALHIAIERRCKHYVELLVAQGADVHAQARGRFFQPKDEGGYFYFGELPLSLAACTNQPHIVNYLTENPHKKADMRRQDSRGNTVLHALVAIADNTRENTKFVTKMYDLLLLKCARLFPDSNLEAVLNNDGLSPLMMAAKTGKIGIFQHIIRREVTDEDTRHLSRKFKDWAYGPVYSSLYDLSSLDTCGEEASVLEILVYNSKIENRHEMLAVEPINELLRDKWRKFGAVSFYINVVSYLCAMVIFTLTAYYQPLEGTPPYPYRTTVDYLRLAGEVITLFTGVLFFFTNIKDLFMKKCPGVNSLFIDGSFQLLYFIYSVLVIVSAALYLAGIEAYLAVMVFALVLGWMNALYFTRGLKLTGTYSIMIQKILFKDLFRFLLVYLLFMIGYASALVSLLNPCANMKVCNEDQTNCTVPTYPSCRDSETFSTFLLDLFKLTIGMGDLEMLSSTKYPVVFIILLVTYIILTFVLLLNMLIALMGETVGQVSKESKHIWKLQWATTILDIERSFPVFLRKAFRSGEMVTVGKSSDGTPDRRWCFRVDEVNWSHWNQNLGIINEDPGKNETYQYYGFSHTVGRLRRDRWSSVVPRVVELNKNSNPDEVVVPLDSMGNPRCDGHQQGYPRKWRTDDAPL

| Structure (SMILES) | pIC50 [1] | pIC50 [2] |
| --- | --- | --- |
| N#Cc1ccc(S(=O)(=O)N2C[C@H](S(=O)(=O)c3ccc(Cl)cn3)[C@](O)(CO)C2)c(Cl)c1 [Example 1, 3-chloro-4-(((3R,4S)-4-((5-chloropyridin-2-yl)sulfonyl)-3-hydroxy-3-(hydroxymethyl)pyrrolidin-1-yl)sulfonyl)benzonitrile] | 8.30 | 8.00 to 10.00 |
| N#Cc1ccc(S(=O)(=O)N2C[C@H](S(=O)(=O)c3ccc(Cl)cc3)[C@](O)(CO)C2)c(Cl)c1 [Example 2, 3-chloro-4-(((3R,4S)-4-((4-chlorophenyl)sulfonyl)-3-hydroxy-3-(hydroxymethyl)pyrrolidin-1-yl)sulfonyl)benzonitrile] |  | 8.00 to 10.00 |
| N#Cc1ccc(S(=O)(=O)N2C[C@H](S(=O)(=O)c3ccc(C#N)c(F)c3)[C@@](O)(CO)C2)c(Cl)c1 [Example 3, 4-(((3S,4S)-1-((2-chloro-4-cyanophenyl)sulfonyl)-4-hydroxy-4-(hydroxymethyl)pyrrolidin-3-yl)sulfonyl)-2-fluorobenzonitrile] |  | 8.00 to 10.00 |
| N#Cc1ccc(S(=O)(=O)[C@H]2CN(S(=O)(=O)c3ccccc3Cl)C[C@]2(O)CO)cc1F [Example 4, 4-(((3S,4S)-1-((2-chlorophenyl)sulfonyl)-4-hydroxy-4-(hydroxymethyl)pyrrolidin-3-yl)sulfonyl)-2-fluorobenzonitrile] |  | 7.00 to 8.00 |
| N#Cc1ccc(S(=O)(=O)[C@H]2CN(S(=O)(=O)c3ccc(F)cc3Cl)C[C@]2(O)CO)cc1F [Example 5, 4-(((3S,4S)-1-((2-chloro-4-fluorophenyl)sulfonyl)-4-hydroxy-4-(hydroxymethyl)pyrrolidin-3-yl)sulfonyl)-2-fluorobenzonitrile] |  | 7.00 to 8.00 |
| Cc1ccc(S(=O)(=O)N2C[C@H](S(=O)(=O)c3ccc(C#N)c(F)c3)[C@@](O)(CO)C2)c(Cl)c1 [Example 6, 4-(((3S,4S)-1-((2-chloro-4-methylphenyl)sulfonyl)-4-hydroxy-4-(hydroxymethyl)pyrrolidin-3-yl)sulfonyl)-2-fluorobenzonitrile] |  | 7.00 to 8.00 |
| N#Cc1ccc(S(=O)(=O)[C@H]2CN(S(=O)(=O)c3ccc(C(F)(F)F)cc3Cl)C[C@]2(O)CO)cc1F [Example 7, 4-(((3S,4S)-1-((2-chloro-4-(trifluoromethyl)phenyl)sulfonyl)-4-hydroxy-4-(hydroxymethyl)pyrrolidin-3-yl)sulfonyl)-2-fluorobenzonitrile] |  | 7.00 to 8.00 |
| N#Cc1ccc(S(=O)(=O)[C@H]2CN(S(=O)(=O)c3ccc(OC(F)(F)F)cc3Cl)C[C@]2(O)CO)cc1F [Example 8, 4-(((3S,4S)-1-((2-chloro-4-(trifluoromethoxy)phenyl)sulfonyl)-4-hydroxy-4-(hydroxymethyl)pyrrolidin-3-yl)sulfonyl)-2-fluorobenzonitrile] |  | 7.00 to 8.00 |
| N#Cc1ccc(S(=O)(=O)[C@H]2CN(S(=O)(=O)c3cc(F)c(Cl)cc3Cl)C[C@]2(O)CO)cc1F [Example 9, 4-(((3S,4S)-1-((2,4-dichloro-5-fluorophenyl)sulfonyl)-4-hydroxy-4-(hydroxymethyl)pyrrolidin-3-yl)sulfonyl)-2-fluorobenzonitrile] |  | 7.00 to 8.00 |
| N#Cc1ccc(S(=O)(=O)N2C[C@H](S(=O)(=O)c3ccc(C#N)c(F)c3)[C@](O)(CO)C2)c(Cl)c1 [Example 10, 4-(((3S,4R)-1-((2-chloro-4-cyanophenyl)sulfonyl)-4-hydroxy-4-(hydroxymethyl)pyrrolidin-3-yl)sulfonyl)-2-fluorobenzonitrile] |  | 8.00 to 10.00 |
| N#Cc1ccc(S(=O)(=O)[C@H]2CN(S(=O)(=O)c3ccccc3Cl)C[C@@]2(O)CO)cc1F [Example 11, 4-(((3S,4R)-1-((2-chlorophenyl)sulfonyl)-4-hydroxy-4-(hydroxymethyl)pyrrolidin-3-yl)sulfonyl)-2-fluorobenzonitrile] |  | 7.00 to 8.00 |
| N#Cc1ccc(S(=O)(=O)[C@H]2CN(S(=O)(=O)c3ccc(F)cc3Cl)C[C@@]2(O)CO)cc1F [Example 12, 4-(((3S,4R)-1-((2-chloro-4-fluorophenyl)sulfonyl)-4-hydroxy-4-(hydroxymethyl)pyrrolidin-3-yl)sulfonyl)-2-fluorobenzonitrile] |  | 8.00 to 10.00 |
| Cc1ccc(S(=O)(=O)N2C[C@H](S(=O)(=O)c3ccc(C#N)c(F)c3)[C@](O)(CO)C2)c(Cl)c1 [Example 13, 4-(((3S,4R)-1-((2-chloro-4-methylphenyl)sulfonyl)-4-hydroxy-4-(hydroxymethyl)pyrrolidin-3-yl)sulfonyl)-2-fluorobenzonitrile] |  | 8.00 to 10.00 |
| N#Cc1ccc(S(=O)(=O)[C@H]2CN(S(=O)(=O)c3ccc(C(F)(F)F)cc3Cl)C[C@@]2(O)CO)cc1F [Example 14, 4-(((3S,4R)-1-((2-chloro-4-(trifluoromethyl)phenyl)sulfonyl)-4-hydroxy-4-(hydroxymethyl)pyrrolidin-3-yl)sulfonyl)-2-fluorobenzonitrile] |  | 8.00 to 10.00 |
| N#Cc1ccc(S(=O)(=O)[C@H]2CN(S(=O)(=O)c3ccc(OC(F)(F)F)cc3Cl)C[C@@]2(O)CO)cc1F [Example 15, 4-(((3S,4R)-1-((2-chloro-4-(trifluoromethoxy)phenyl)sulfonyl)-4-hydroxy-4-(hydroxymethyl)pyrrolidin-3-yl)sulfonyl)-2-fluorobenzonitrile] |  | 7.00 to 8.00 |
| N#Cc1ccc(S(=O)(=O)[C@H]2CN(S(=O)(=O)c3cc(F)c(Cl)cc3Cl)C[C@@]2(O)CO)cc1F [Example 16, 4-(((3S,4R)-1-((2,4-dichloro-5-fluorophenyl)sulfonyl)-4-hydroxy-4-(hydroxymethyl)pyrrolidin-3-yl)sulfonyl)-2-fluorobenzonitrile] |  | 8.00 to 10.00 |
| N#Cc1cc(Cl)ccc1S(=O)(=O)N1C[C@H](S(=O)(=O)c2ccc(Cl)cc2)[C@](O)(CO)C1 [Example 17, 5-chloro-2-(((3R,4S)-4-((4-chlorophenyl)sulfonyl)-3-hydroxy-3-(hydroxymethyl)pyrrolidin-1-yl)sulfonyl)benzonitrile] |  | 8.00 to 10.00 |
| O=S(=O)(c1ccc(Cl)cc1)[C@H]1CN(S(=O)(=O)c2ccc(Cl)cc2Cl)C[C@@]1(O)CO [Example 18, (3R,4S)-4-((4-chlorophenyl)sulfonyl)-1-((2,4-dichlorophenyl)sulfonyl)-3-(hydroxymethyl)pyrrolidin-3-ol] |  | 7.00 to 8.00 |
| N#Cc1ccc(S(=O)(=O)N2C[C@H](S(=O)(=O)c3ccc(Cl)cc3)[C@](O)(CO)C2)c(C(F)(F)F)c1 [Example 19, 4-(((3R,4S)-4-((4-chlorophenyl)sulfonyl)-3-hydroxy-3-(hydroxymethyl)pyrrolidin-1-yl)sulfonyl)-3-(trifluoromethyl)benzonitrile] |  | 8.00 to 10.00 |
| Cc1cc(C#N)ccc1S(=O)(=O)N1C[C@H](S(=O)(=O)c2ccc(Cl)cc2)[C@](O)(CO)C1 [Example 20, 4-(((3R,4S)-4-((4-chlorophenyl)sulfonyl)-3-hydroxy-3-(hydroxymethyl)pyrrolidin-1-yl)sulfonyl)-3-methylbenzonitrile] |  | 7.00 to 8.00 |
| N#Cc1ccc(S(=O)(=O)N2C[C@H](S(=O)(=O)c3ccc(Cl)cc3)[C@](O)(CO)C2)c(F)c1 [Example 21, 4-(((3R,4S)-4-((4-chlorophenyl)sulfonyl)-3-hydroxy-3-(hydroxymethyl)pyrrolidin-1-yl)sulfonyl)-3-fluorobenzonitrile] |  | 7.00 to 8.00 |
| N#Cc1ccc(S(=O)(=O)[C@H]2CN(S(=O)(=O)c3ccc(F)cc3Br)C[C@@]2(O)CO)cc1 [Example 22, 4-(((3S,4R)-1-((2-bromo-4-fluorophenyl)sulfonyl)-4-hydroxy-4-(hydroxymethyl)pyrrolidin-3-yl)sulfonyl)benzonitrile] | 7.89 | 7.00 to 8.00 |
| N#Cc1ccc(S(=O)(=O)N2C[C@H](S(=O)(=O)c3ccc(Cl)cc3)[C@@](O)(CO)C2)c(Cl)c1 [Example 23, 3-chloro-4-(((3S,4S)-4-((4-chlorophenyl)sulfonyl)-3-hydroxy-3-(hydroxymethyl)pyrrolidin-1-yl)sulfonyl)benzonitrile] |  | 7.00 to 8.00 |
| N#Cc1ccc(S(=O)(=O)N2C[C@H](S(=O)(=O)c3ccc(Br)cc3)[C@@](O)(CO)C2)c(Cl)c1 [Example 24, 4-(((3S,4S)-4-((4-bromophenyl)sulfonyl)-3-hydroxy-3-(hydroxymethyl)pyrrolidin-1-yl)sulfonyl)-3-chlorobenzonitrile] |  | 7.00 to 8.00 |
| N#Cc1ccc(S(=O)(=O)[C@H]2CN(S(=O)(=O)c3ccc(Cl)cc3C(F)(F)F)C[C@@]2(O)CO)cc1 [Example 25, 4-(((3S,4R)-1-((4-chloro-2-(trifluoromethyl)phenyl)sulfonyl)-4-hydroxy-4-(hydroxymethyl)pyrrolidin-3-yl)sulfonyl)benzonitrile] |  | 8.00 to 10.00 |
| N#Cc1ccc(S(=O)(=O)N2C[C@H](S(=O)(=O)c3ccc(C(F)(F)F)nc3)[C@](O)(CO)C2)c(Cl)c1 [Example 26, 3-chloro-4-(((3R,4S)-3-hydroxy-3-(hydroxymethyl)-4-((6-(trifluoromethyl)pyridin-3-yl)sulfonyl)pyrrolidin-1-yl)sulfonyl)benzonitrile] |  | 7.00 to 8.00 |
| N#Cc1ccc(S(=O)(=O)N2C[C@H](S(=O)(=O)c3ccc(C(F)(F)F)nc3)[C@](O)(CO)C2)c(C(F)(F)F)c1 [Example 27, 4-(((3R,4S)-3-hydroxy-3-(hydroxymethyl)-4-((6-(trifluoromethyl)pyridin-3-yl)sulfonyl)pyrrolidin-1-yl)sulfonyl)-3-(trifluoromethyl)benzonitrile] |  | 7.00 to 8.00 |
| Cc1cc(C(F)(F)F)ccc1S(=O)(=O)N1C[C@H](S(=O)(=O)c2ccc(C#N)cc2)[C@](O)(CO)C1 [Example 28, 4-(((3S,4R)-4-hydroxy-4-(hydroxymethyl)-1-((2-methyl-4-(trifluoromethyl)phenyl)sulfonyl)pyrrolidin-3-yl)sulfonyl)benzonitrile] |  | 7.00 to 8.00 |
